Experimental data reported in patent publication US12382955B2, “Peroxyformic acid compositions for membrane filtration cleaning in energy services” (priority 2016, dated 2025).

Tests used:
[1] = Membrane compatibility, simulated exposure soak, clean water flux and salt rejection (Example 4); settings: Koch HRX, PFA 300 ppm, 77 F
Protocol: The effects of PFA on reverse osmosis members which contain a polyamide structure in comparison with known control chemicals were tested. Three different membranes were tested including Koch HRX, Hydranautics CPA5 and Hydranautics ESPA2+. Membranes were soaked in duplicate, in chemistries according to Table 4.
Membranes were then conditioned in Ultrasil 110 at a pH of 11 for 90 minutes at 50° C., followed by a rinse in DI water.
Each of the chemistries, with the exception of PFA was refreshed daily. PFA was refreshed hourly. After the simulated exposure the membranes are rinsed with DI water and placed on the Flat Sheet Membrane skid (Model M20). The membranes were rinsed with DI water for 24 hours at standard UF pressure and temperature. Once 24 hours was completed the membranes were subjected to alkaline conditioning step until solution pH is 11. 15.14 grams of NaCl was added to the recirculating water (2000 ppm NaCl) and the system was allowed to continue circulating. The conductivity of each permeate tube and feed was then measured and recorded and shown as percent rejection. The percent rejection was determined by (conductivity of the feed−conductivity of the permeate)/(conductivity of the feed).

oil and gas biofilm = assay: Biofilm percent reductions (Example 5)

Compound | Water Flux (LMH) PFA 1 YR ([1]; simulated 1 year, 78 hr soak) | Water Flux (LMH) PFA 3 YR ([1]; simulated 3 years, 234 hr soak) | Biofilm percent reductions, ATP (oil and gas biofilm; 75 ppm active) | Biofilm percent reductions, Total biofilm (oil and gas biofilm; 75 ppm active) | Biofilm percent reductions, Viable biofilm (oil and gas biofilm; 75 ppm active) | Biofilm percent reductions, ATP (oil and gas biofilm; 250 ppm) | Biofilm percent reductions, Total biofilm (oil and gas biofilm; 250 ppm) | inhibition at 250 ppm (oil and gas biofilm; read-out: Biofilm percent reductions, Viable biofilm)
O=COO [PFA, peroxyformic acid] | 65.40 LMH | 75.84 LMH | 99% | 85% | 96% |  |  | 
O=CCCCC=O [Glutaraldehyde, reference compound] |  |  |  |  |  | 94% | 58% | 81%
